Where two headings read alike, the source gives them in different places.
Tests used:
[1] = tested on: Cabbage Looper (Trichoplusia ni) ("CL"); assay: Bioassay on cabbage looper (CL), 128-well diet tray assay; assay type: in vivo; conditions: for mortality at 50 µg/cm2: 168 h, 50 μg/cm^2 on artificial diet, second instar CL larvae, 25° C., five to seven days, average of eight wells, read-out: CL % Control (or Mortality) rating; for pest or weed control at 50 µg/cm2: activity rating class, read-out: CL (Biological Results, Insect species)
How it was run: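 Second-instar larvae (one to five per well) placed on artificial diet surface-treated with 50 μg/cm^2 compound in 90:10 acetone-water, dried before infestation. Held 25 °C, 14:10 light-dark for five to seven days; percent mortality scored per well and averaged over eight wells.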

[2] = tested on: Beet Armyworm (Spodoptera exigua) ("BAW"); assay: Bioassay on beet armyworm (BAW), 128-well diet tray assay; assay type: in vivo; conditions: for mortality at 50 µg/cm2: 168 h, 50 μg/cm^2 on artificial diet, second instar BAW larvae, 25° C., five to seven days, average of eight wells, read-out: BAW % Control (or Mortality) rating; for pest or weed control at 50 µg/cm2: activity rating class, read-out: BAW (Biological Results, Insect species)
How it was run: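 Second-instar larvae (one to five per well) were placed on artificial diet surface-treated with 50 μg/cm^2 compound applied in 90:10 acetone-water and dried, eight wells per compound. Held at 25° C., 14:10 light-dark for five to seven days; percent mortality was scored per well and averaged over the eight wells.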

Compound	mortality at 50 µg/cm2 [1]	mortality at 50 µg/cm2 [2]	pest or weed control at 50 µg/cm2 ([1]; Table ABC (PC))	pest or weed control at 50 µg/cm2 ([2]; Table ABC (PC))	other results
CCc1cccc(C)c1N1C(=O)CS/C1=N\C(=O)NCCCc1cccc(-c2ncn(-c3ccc(OC(F)(F)F)cc3)n2)c1 [P127, (Z)-1-(3-(2-ethyl-6-methylphenyl)-4-oxothiazolidin-2-ylidene)-3-(3-(3-(1-(4-(trifluoromethoxy)phenyl)-1H-1,2,4-triazol-3-yl)phenyl)propyl)urea]	50 to 100%	50 to 100%			
CC(C)c1cc(F)ccc1NC(=S)NC(=O)NCCCc1cccc(-c2ncn(-c3ccc(OC(F)(F)F)cc3)n2)c1 [PC129, 1-[(4-fluoro-2-isopropyl-phenyl)carbamothioyl]-3-[3-[3-[1-[4-(trifluoromethoxy)phenyl]-1H-1,2,4-triazol-3-yl]phenyl]propyl]urea]			50 to 100%	50 to 100%	
CCc1ccccc1NC(=S)NC(=O)NCCCc1ccc(-c2ncn(-c3ccc(OC(F)(F)F)cc3)n2)cc1 [PC93, 1-[(2-ethylphenyl)carbamothioyl]-3-[3-[4-[1-[4-(trifluoromethoxy)phenyl]-1H-1,2,4-triazol-3-yl]phenyl]propyl]urea]			50 to 100%	50 to 100%	
COc1ccc(N2C(=O)CS/C2=N\C(=O)NCc2ccc(-c3ncn(-c4ccc(OC(F)(F)F)cc4)n3)cc2)c(C)c1 [P6, (Z)-1-(3-(4-methoxy-2-methylphenyl)-4-oxothiazolidin-2-ylidene)-3-(4-(1-(4-(trifluoromethoxy)phenyl)-1H-1,2,4-triazol-3-yl)benzyl)urea]	50 to 100%	50 to 100%			
CC(C)c1cc(F)ccc1N1C(=O)CS/C1=N\C(=O)NCCCc1ccc(-c2ncn(-c3ccc(OC(F)(F)F)cc3)n2)cc1 [P103, P1150, (Z)-1-(3-(4-fluoro-2-isopropylphenyl)-4-oxothiazolidin-2-ylidene)-3-(3-(4-(1-(4-(trifluoromethoxy)phenyl)-1H-1,2,4-triazol-3-yl)phenyl)propyl)urea]	50 to 100%	50 to 100%			
CCc1cccc(C)c1NC(=S)NC(=O)NCCCc1cccc(-c2ncn(-c3ccc(OC(F)(F)F)cc3)n2)c1 [PC127, 1-[(2-ethyl-6-methyl-phenyl)carbamothioyl]-3-[3-[3-[1-[4-(trifluoromethoxy)phenyl]-1H-1,2,4-triazol-3-yl]phenyl]propyl]urea]			50 to 100%	50 to 100%	
CC(C)c1ccccc1NC(=S)NC(=O)NCCCc1cccc(-c2ncn(-c3ccc(OC(F)(F)F)cc3)n2)c1 [PC120, 1-[(2-isopropylphenyl)carbamothioyl]-3-[3-[3-[1-[4-(trifluoromethoxy)phenyl]-1H-1,2,4-triazol-3-yl]phenyl]propyl]urea]			50 to 100%	50 to 100%	
CC(C)c1ccccc1NC(=S)NC(=O)NCc1ccc(-c2ncn(-c3ccc(OC(F)(F)C(F)(F)F)cc3)n2)cc1 [F15, N-(4-{1-[4-(pentafluoroethoxy)phenyl]-1H-1,2,4-triazol-3-yl}benzyl)-N′-[2-(propan-2-yl)phenyl]dicarbonimidothioic diamide]	50 to 100%	50 to 100%			
CC(C)c1cc(F)ccc1NC(=S)NC(=O)NCc1ccc(-c2ncn(-c3ccc(OC(F)(F)F)cc3)n2)cc1 [PC3, 1-[(4-fluoro-2-isopropyl-phenyl)carbamothioyl]-3-[[4-[1-[4-(trifluoromethoxy)phenyl]-1H-1,2,4-triazol-3-yl]phenyl]methyl]urea]			50 to 100%	50 to 100%	
CC(C)c1ccc(Cl)cc1NC(=S)NC(=O)NCCCCc1cccc(-c2ncn(-c3ccc(OC(F)(F)F)cc3)n2)c1 [FB37, 1-[(5-chloro-2-isopropyl-phenyl)carbamothioyl]-3-[4-[3-[1-[4-(trifluoromethoxy)phenyl]-1H-1,2,4-triazol-3-yl]phenyl]butyl]urea]					pest or weed control at 50 µg/cm2 ([1]; Table ABC (FB)): 0 to 50%; pest or weed control at 50 µg/cm2 ([2]; Table ABC (FB)): 0 to 50%
CCCc1ccc(C)cc1NC(=S)NC(=O)NCc1ccc(-c2ncn(-c3ccc(OC(F)(F)F)cc3)n2)cc1 [PC8, 1-[(5-methyl-2-propyl-phenyl)carbamothioyl]-3-[[4-[1-[4-(trifluoromethoxy)phenyl]-1H-1,2,4-triazol-3-yl]phenyl]methyl]urea]			50 to 100%	50 to 100%	
CC(C)c1ccccc1N1C(=O)CS/C1=N\C(=O)NCc1cccc(-c2ncn(-c3ccc(OC(F)(F)F)cc3)n2)c1 [FB31, (Z)-1-(3-(2-isopropylphenyl)-4-oxothiazolidin-2-ylidene)-3-(3-(1-(4-(trifluoromethoxy)phenyl)-1H-1,2,4-triazol-3-yl)benzyl)urea]					pest or weed control at 50 µg/cm2 ([1]; Table ABC (FB)): 50 to 100%; pest or weed control at 50 µg/cm2 ([2]; Table ABC (FB)): 50 to 100%
Cc1ccc(C(C)C)c(NC(=S)NC(=O)NCCCc2cccc(-c3ncn(-c4ccc(OC(F)(F)F)cc4)n3)c2)c1 [PC124, 1-[(2-isopropyl-5-methyl-phenyl)carbamothioyl]-3-[3-[3-[1-[4-(trifluoromethoxy)phenyl]-1H-1,2,4-triazol-3-yl]phenyl]propyl]urea]			50 to 100%	50 to 100%	
CCc1cccc(C)c1N1C(=O)CS/C1=N\C(=O)NCCc1cccc(-c2ncn(-c3ccc(OC(F)(F)F)cc3)n2)c1 [P83, (Z)-1-(3-(2-ethyl-6-methylphenyl)-4-oxothiazolidin-2-ylidene)-3-(3-(1-(4-(trifluoromethoxy)phenyl)-1H-1,2,4-triazol-3-yl)phenethyl)urea]	50 to 100%	50 to 100%			
Cc1ccc(C(C)C)c(N2C(=O)CS/C2=N\C(=O)NC2CCCCC2c2ccc(-c3ncn(-c4ccc(OC(F)(F)F)cc4)n3)cc2)c1 (stereo not shown) [FB15, (Z)-1-(3-(2-isopropyl-5-methylphenyl)-4-oxothiazolidin-2-ylidene)-3-(2-(4-(1-(4-(trifluoromethoxy)phenyl)-1H-1,2,4-triazol-3-yl)phenyl)cyclohexyl)urea]					pest or weed control at 50 µg/cm2 ([1]; Table ABC (FB)): 50 to 100%; pest or weed control at 50 µg/cm2 ([2]; Table ABC (FB)): 50 to 100%
CCc1cccc(C)c1N1C(=O)CS/C1=N\C(=O)NCCCCc1cccc(-c2ncn(-c3ccc(OC(F)(F)F)cc3)n2)c1 [P179, (Z)-1-(3-(2-ethyl-6-methylphenyl)-4-oxothiazolidin-2-ylidene)-3-(4-(3-(1-(4-(trifluoromethoxy)phenyl)-1H-1,2,4-triazol-3-yl)phenyl)butyl)urea]	0%	0%			
Cc1ccc(N2C(=O)CS/C2=N\C(=O)NCCc2cccc(-c3ncn(-c4ccc(OC(F)(F)F)cc4)n3)c2)c(C(C)C)c1 [P84, (Z)-1-(3-(2-isopropyl-4-methylphenyl)-4-oxothiazolidin-2-ylidene)-3-(3-(1-(4-(trifluoromethoxy)phenyl)-1H-1,2,4-triazol-3-yl)phenethyl)urea]	50 to 100%	50 to 100%			
COc1ccc(N2C(=O)CS/C2=N\C(=O)NCCCc2cccc(-c3ncn(-c4ccc(OC(F)(F)F)cc4)n3)c2)c(C)c1 [P131, (Z)-1-(3-(4-methoxy-2-methylphenyl)-4-oxothiazolidin-2-ylidene)-3-(3-(3-(1-(4-(trifluoromethoxy)phenyl)-1H-1,2,4-triazol-3-yl)phenyl)propyl)urea]	50 to 100%	50 to 100%			
Cc1ccc(N2C(=O)CS/C2=N\C(=O)NCc2ccc(-c3ncn(-c4ccc(OC(F)(F)F)cc4)n3)cc2)c(C(C)C)c1 [P5, (Z)-1-(3-(2-isopropyl-4-methylphenyl)-4-oxothiazolidin-2-ylidene)-3-(4-(1-(4-(trifluoromethoxy)phenyl)-1H-1,2,4-triazol-3-yl)benzyl)urea]	50 to 100%	50 to 100%			
Cc1ccc(C(C)C)c(NC(=S)NC(=O)NCCc2ccc(-c3ncn(-c4ccc(OC(F)(F)F)cc4)n3)cc2C)c1 [FB1, 1-[(2-isopropyl-5-methyl-phenyl)carbamothioyl]-3-[2-[2-methyl-4-[1-[4-(trifluoromethoxy)phenyl]-1H-1,2,4-triazol-3-yl]phenyl]ethyl]urea]					pest or weed control at 50 µg/cm2 ([1]; Table ABC (FB)): 50 to 100%; pest or weed control at 50 µg/cm2 ([2]; Table ABC (FB)): 50 to 100%
CCc1ccccc1N1C(=O)CS/C1=N\C(=O)NCCCc1ccc(-c2ncn(-c3ccc(OC(F)(F)F)cc3)n2)cc1 [P93, P510, (Z)-1-(3-(2-ethylphenyl)-4-oxothiazolidin-2-ylidene)-3-(3-(4-(1-(4-(trifluoromethoxy)phenyl)-1H-1,2,4-triazol-3-yl)phenyl)propyl)urea]	50 to 100%	50 to 100%			
COc1ccc(N2C(=O)CS/C2=N\C(=O)NCCc2cccc(-c3ncn(-c4ccc(OC(F)(F)F)cc4)n3)c2)c(C)c1 [P87, (Z)-1-(3-(4-methoxy-2-methylphenyl)-4-oxothiazolidin-2-ylidene)-3-(3-(1-(4-(trifluoromethoxy)phenyl)-1H-1,2,4-triazol-3-yl)phenethyl)urea]	50 to 100%	50 to 100%			
Cc1ccc(C(C)C)c(N2C(=O)CS/C2=N\C(=O)NCCc2ccc(-c3ncn(-c4ccc(OC(F)(F)F)cc4)n3)cc2F)c1 [FB8, (Z)-1-(2-fluoro-4-(1-(4-(trifluoromethoxy)phenyl)-1H-1,2,4-triazol-3-yl)phenethyl)-3-(3-(2-isopropyl-5-methylphenyl)-4-oxothiazolidin-2-ylidene)urea]					pest or weed control at 50 µg/cm2 ([1]; Table ABC (FB)): 50 to 100%; pest or weed control at 50 µg/cm2 ([2]; Table ABC (FB)): 50 to 100%

From patent US9783532B2, “Molecules having certain pesticidal utilities, and intermediates, compositions, and processes related thereto” (Dow AgroSciences LLC, priority 2013, dated 2017)
